Patent US4360663A, “Steroid hormone-antitumor derivatives” (Kureha Kagaku Kogyo Kabushiki Kaisha, priority 1978, dated 1982)

Experiments:
[1] = Acute toxicity (LD50), ICR-JCL female mice, Litchfield-Wilcoxon graph method; details: mouse, in vivo, one dose, in olive oil, after 7 days
Description: In the measurement of LD50, eight ICR-JCL female mice (5 week age) were used as one group to breed in a transparent polycage, and each drug was dissolved in olive oil and administrated by routes of intraperitoneal injection (i.p.), oral administration (p.o.) and subcutaneous injection (s.c.), to the mice at one dose and then, their value of LD50 by Litchfield-Wilcoxon graph method is obtained after 7 days.
(§1) The tests (1), (2), (3) for various active ingredients were carried out.

[2] = system: human breast cancer cells having steroid hormone receptor; assay: Antitumor test (in vivo), human breast cancer cells implanted in BALB/C-nu/nu mice; details: tumors excised day 25
Description: Pieces of human breast cancer cells having steroid hormone receptor was subcutaneously implanted under the arm of mice (BALB/C-nu/nu) (5 week age) to form solid tumors. After the solid tumors were established, each dispersion or solution of the active ingredient in olive oil was administered by oral dose or intraperitoneal injection each other day for 10 times or every days for 20 times. Twenty five days from the initial administration, the tumors were excised. Efficiency of inhibition of tumor proliferation was measured from (A) each average weight of excised tumors for 10 mice (the active ingredient was administrated) and (B) each average weight of excised tumors for 10 control mice. [formula]
as §1

[3] = system: estrogen sensitive cells (uterus of rabbit); assay: Binding function to estrogen sensitive cells (3H-estradiol replacement, uterus of rabbit); details: 100 nM sample; smaller value = higher binding; 54-56% at 0 nM
Description: Binding function of the active ingredients to estrogen sensitive cells.
The binding function of the active ingredient to tumor cells was tested by the method described in Biochemical Experiment text Hormone (I) (Nippon Seikagaku) (Tokyo Kagakudojin page 217-252, April 25, 1977).
Estradiol labelled by tritium (^3 H) was incubated with uterus of rabbit to bind it and then, the sample was added to the system to measure the amount of free ^3 H-estradiol which was replaced by the added estradiol. The results are shown as the binding ^3 H-estradiol(%) in the cases adding […] of the sample.

[4] = system: estrogen sensitive cells (uterus of rabbit); assay: as above; details: 10 nM sample; smaller value = higher binding; 54-56% at 0 nM

## O=c1[nH]cc(F)c(=O)[nH]1 [Test No. 8 (Table 17), 5-fluoro-2,4-dioxo-pyrimidine, reference compound]
[1]; ip
  LD50 at 168 h: 242 mg/kg
[1]; po
  LD50 at 168 h: 900 mg/kg
[2]; i.p., 10 mg/kg
  Inhibitory effect of tumor, efficiency: 30%
[2]; i.p., 20 mg/kg
  Inhibitory effect of tumor, efficiency: 50%
[2]; p.o., 15 mg/kg
  Inhibitory effect of tumor, efficiency: 30%
[2]; p.o., 30 mg/kg
  Inhibitory effect of tumor, efficiency: 60%

## N[C@@H](Cc1ccc(N(CCCl)CCCl)cc1)C(=O)O [compound 21]
[1]; ip
  LD50 at 168 h: 6.2 mg/kg
[1]; po
  LD50 at 168 h: 15.9 mg/kg
[2]; i.p., 0.1 mg/kg
  Inhibitory effect of tumor, efficiency: 51%
[2]; i.p., 0.5 mg/kg
  Inhibitory effect of tumor, efficiency: 57%
[2]; p.o., 1 mg/kg
  Inhibitory effect of tumor, efficiency: 61%
[2]; p.o., 3 mg/kg
  Inhibitory effect of tumor, efficiency: 72%

## 3-hydroxy-1,3,5(10)-estratriene-17β-[methyl-2-{N'-(2-chloroethyl)-N'-nitrosoureido}-2-deoxy-α-D-glucuronoyloxy]acetate [Test No. 2 (Table 17)]
[3]
  Binding 3H-estradiol: 17%
[4]
  Binding 3H-estradiol: 37%

## CN(Cc1cnc2nc(N)nc(N)c2n1)c1ccc(C(=O)N[C@@H](CCC(=O)O)C(=O)O)cc1 [Test No. 12 (Table 18), 4-amino-N^10 --methylpteroyl glutamate, reference compound]
[1]; ip
  LD50 at 168 h: 94 mg/kg
[1]; po
  LD50 at 168 h: 230 mg/kg
[2]; i.p., 5 mg/kg
  Inhibitory effect of tumor, efficiency: 48%
[2]; i.p., 20 mg/kg
  Inhibitory effect of tumor, efficiency: 65%
[2]; p.o., 10 mg/kg
  Inhibitory effect of tumor, efficiency: 31%
[2]; p.o., 50 mg/kg
  Inhibitory effect of tumor, efficiency: 42%

## COc1cccc2c1C(=O)c1c(O)c3c(c(O)c1C2=O)C[C@@](O)(C(=O)CO)C[C@@H]3O[C@H]1C[C@H](NCC(=O)O[C@H]2CC[C@H]3[C@@H]4CCc5cc(OC(=O)c6ccccc6)ccc5[C@H]4CC[C@]23C)[C@H](O)[C@H](C)O1 [compound 17]
[1]; po
  LD50 at 168 h: > 3000 mg/kg
[2]; p.o., 10 mg/kg
  Inhibitory effect of tumor, efficiency: 70%
[2]; p.o., 50 mg/kg
  Inhibitory effect of tumor, efficiency: 79%

## COc1cccc2c1C(=O)c1c(O)c3c(c(O)c1C2=O)C[C@@](O)(C(=O)CO)C[C@@H]3O[C@H]1C[C@H](NCC(=O)O[C@H]2CC[C@H]3[C@@H]4CCc5cc(O)ccc5[C@H]4CC[C@]23C)[C@H](O)[C@H](C)O1 [Test No. 14 (Table 18), 3-glycoloyl-1,2,3,4,6,11-hexahydro-3,5,12-trihydroxy-10-methoxy-6,11-dioxo-1-naphthacenyl-3'-[3-hydroxy-1,3,5(10)-estratriene-17β-oxycarbonylmethyl]amino-2',3',6'-trideoxy-α-L-lyxo-hexapyranoside]
[1]; po
  LD50 at 168 h: > 3000 mg/kg
[2]; p.o., 10 mg/kg
  Inhibitory effect of tumor, efficiency: 63%
[2]; p.o., 50 mg/kg
  Inhibitory effect of tumor, efficiency: 71%

## COc1cccc2c1C(=O)c1c(O)c3c(c(O)c1C2=O)C[C@@](O)(C(=O)CO)C[C@@H]3O[C@H]1C[C@H](N)[C@H](O)[C@H](C)O1 [Test No. 13 (Table 18), 3-glycoloyl-1,2,3,4,6,11-hexahydro-3,5,12-trihydroxy-10-methoxy-6,11-dioxo-1-naphthacenyl-3'-amino-2',3',6'-trideoxy-α-L-lyxo-hexapyranoside, reference compound]
[1]; po
  LD50 at 168 h: 730 mg/kg
[2]; i.p., 10 mg/kg
  Inhibitory effect of tumor, efficiency: 20%
[2]; p.o., 10 mg/kg
  Inhibitory effect of tumor, efficiency: 20%

## O=NN(CCCl)C(=O)N[C@H]1C(O)O[C@H](CO)[C@@H](O)[C@@H]1O (stereo partly drawn) [Test No. 1 (Table 18), reference compound]
[1]; ip
  LD50 at 168 h: 48 mg/kg
[1]; po
  LD50 at 168 h: 210 mg/kg
[2]; i.p., 3 mg/kg
  Inhibitory effect of tumor, efficiency: 18%
[2]; i.p., 10 mg/kg
  Inhibitory effect of tumor, efficiency: 58%
[2]; p.o., 10 mg/kg
  Inhibitory effect of tumor, efficiency: 13%
[2]; p.o., 40 mg/kg
  Inhibitory effect of tumor, efficiency: 60%

## CCC(=O)Oc1ccc2c(c1)CC[C@@H]1[C@@H]2CC[C@]2(C)[C@@H](OC(=O)CN[C@H]3C[C@H](O[C@H]4C[C@](O)(C(=O)CO)Cc5c(O)c6c(c(O)c54)C(=O)c4c(OC)cccc4C6=O)O[C@@H](C)[C@H]3O)CC[C@@H]12 [compound 16]
[1]; po
  LD50 at 168 h: > 3000 mg/kg
[2]; p.o., 10 mg/kg
  Inhibitory effect of tumor, efficiency: 69%
[2]; p.o., 50 mg/kg
  Inhibitory effect of tumor, efficiency: 83%

## CN(N=O)C(=O)N[C@H]1C(O)O[C@H](CO)[C@@H](O)[C@@H]1O (stereo partly drawn) [Test No. 5 (Table 18), 2-(N'--methyl-N'--nitrosoureido)-2-deoxy-D-glucopyranoside, reference compound]
[1]; ip
  LD50 at 168 h: 264 mg/kg
[1]; po
  LD50 at 168 h: > 1000 mg/kg
[2]; i.p., 10 mg/kg
  Inhibitory effect of tumor, efficiency: 20%
[2]; i.p., 50 mg/kg
  Inhibitory effect of tumor, efficiency: 63%
[2]; p.o., 10 mg/kg
  Inhibitory effect of tumor, efficiency: 69%
[2]; p.o., 40 mg/kg
  Inhibitory effect of tumor, efficiency: 86%

## C[C@]12CC[C@@H]3c4ccc(OC(=O)c5ccccc5)cc4CC[C@H]3[C@@H]1CC[C@@H]2OC(=O)Cn1cc(F)c(=O)[nH]c1=O [Test No. 8 (Table 18), 3-benzoyloxy-1,3,5(10)-estratriene-17β-[5-fluoro-2,4-dioxo-pyrimidin-1-yl]acetate]
[1]; ip
  LD50 at 168 h: 680 mg/kg
[1]; po
  LD50 at 168 h: > 3000 mg/kg
[2]; i.p., 15 mg/kg
  Inhibitory effect of tumor, efficiency: 83%
[2]; i.p., 30 mg/kg
  Inhibitory effect of tumor, efficiency: 90%
[2]; p.o., 15 mg/kg
  Inhibitory effect of tumor, efficiency: 70%
[2]; p.o., 30 mg/kg
  Inhibitory effect of tumor, efficiency: 81%

## COc1cccc2c1C(=O)c1c(O)c3c(c(O)c1C2=O)C[C@@](O)(C(C)=O)C[C@@H]3O[C@H]1C[C@H](N)[C@H](O)[C@H](C)O1 [compound 18]
[1]; ip
  LD50 at 168 h: 5 mg/kg
[1]; po
  LD50 at 168 h: 20 mg/kg
[2]; i.p., 0.5 mg/kg
  Inhibitory effect of tumor, efficiency: 47%
[2]; i.p., 1 mg/kg
  Inhibitory effect of tumor, efficiency: 78%
[2]; p.o., 1 mg/kg
  Inhibitory effect of tumor, efficiency: 59%

## COc1cccc2c1C(=O)c1c(O)c3c(c(O)c1C2=O)C[C@@](O)(C(=O)CO)C[C@@H]3O[C@H]1C[C@H](NCC(=O)O[C@H]2CC[C@H]3[C@@H]4CCc5cc(OC(C)=O)ccc5[C@H]4CC[C@]23C)[C@H](O)[C@H](C)O1 [Test No. 15 (Table 18), 3-glycoloyl-1,2,3,4,6,11-hexahydro-3,5,12-trihydroxy-10-methoxy-6,11-dioxo-1-naphthacenyl-3'-[3-acetoxy-1,3,5(10)-estratriene-17β-oxycarbonylmethyl]amino-2',3',6'-trideoxy-α-L-lyxo-hexapyranoside]
[1]; po
  LD50 at 168 h: > 3000 mg/kg
[2]; p.o., 10 mg/kg
  Inhibitory effect of tumor, efficiency: 53%
[2]; p.o., 50 mg/kg
  Inhibitory effect of tumor, efficiency: 79%

## C[C@]12CC[C@@H]3c4ccc(O)cc4CC[C@H]3[C@@H]1CC[C@@H]2OC(=O)COC(=O)[C@H]1OC(O)[C@H](NC(=O)N(CCCl)N=O)[C@@H](O)[C@@H]1O (stereo partly drawn) [Test No. 2 (Table 18), 3-hydroxy-1,3,5(10)-estratriene-17β-[2-{N'-(2-chloroethyl)-N'-nitrosoureido}-2-deoxy-D-glucuronoyloxy]acetate]
[1]; ip
  LD50 at 168 h: > 180 mg/kg
[1]; po
  LD50 at 168 h: > 1000 mg/kg
[2]; i.p., 1 mg/kg
  Inhibitory effect of tumor, efficiency: 90%
[2]; i.p., 3 mg/kg
  Inhibitory effect of tumor, efficiency: 92%
[2]; p.o., 10 mg/kg
  Inhibitory effect of tumor, efficiency: 73%
[2]; p.o., 40 mg/kg
  Inhibitory effect of tumor, efficiency: 89%

## C[C@]12CC[C@@H]3c4ccc(OC(=O)c5ccccc5)cc4CC[C@H]3[C@@H]1CC[C@@H]2OC(=O)COCCNc1nc(N2CC2)nc(N2CC2)n1 [compound 20]
[1]; ip
  LD50 at 168 h: > 15 mg/kg
[1]; po
  LD50 at 168 h: > 2000 mg/kg
[2]; i.p., 0.1 mg/kg
  Inhibitory effect of tumor, efficiency: 74%
[2]; p.o., 1 mg/kg
  Inhibitory effect of tumor, efficiency: 78%
[2]; p.o., 5 mg/kg
  Inhibitory effect of tumor, efficiency: 87%

## CCC(=O)Oc1ccc2c(c1)CC[C@@H]1[C@@H]2CC[C@]2(C)[C@@H](OC(=O)Cn3cc(F)c(=O)[nH]c3=O)CC[C@@H]12 [Test No. 10 (Table 18), 3-propionyloxy-1,3,5(10)-estratriene-17β-[5-fluoro-2,4-dioxo-pyrimidin-1-yl]acetate]
[1]; ip
  LD50 at 168 h: 740 mg/kg
[1]; po
  LD50 at 168 h: > 3000 mg/kg
[2]; i.p., 15 mg/kg
  Inhibitory effect of tumor, efficiency: 81%
[2]; i.p., 30 mg/kg
  Inhibitory effect of tumor, efficiency: 91%
[2]; p.o., 15 mg/kg
  Inhibitory effect of tumor, efficiency: 72%
[2]; p.o., 30 mg/kg
  Inhibitory effect of tumor, efficiency: 83%

## CC(=O)Oc1ccc2c(c1)CC[C@@H]1[C@@H]2CC[C@]2(C)[C@@H](OC(=O)Cn3cc(F)c(=O)[nH]c3=O)CC[C@@H]12 [Test No. 9 (Table 18), 3-acetoxy-1,3,5(10)-estratriene-17β-[5-fluoro-2,4-dioxo-pyrimidin-1-yl]acetate]
[1]; ip
  LD50 at 168 h: 800 mg/kg
[1]; po
  LD50 at 168 h: > 3000 mg/kg
[2]; i.p., 15 mg/kg
  Inhibitory effect of tumor, efficiency: 84%
[2]; i.p., 30 mg/kg
  Inhibitory effect of tumor, efficiency: 93%
[2]; p.o., 15 mg/kg
  Inhibitory effect of tumor, efficiency: 72%
[2]; p.o., 30 mg/kg
  Inhibitory effect of tumor, efficiency: 87%

## COc1cccc2c1C(=O)c1c(O)c3c(c(O)c1C2=O)C[C@@](O)(C(C)=O)C[C@@H]3O[C@H]1C[C@H](NCC(=O)O[C@H]2CC[C@H]3[C@@H]4CCc5cc(O)ccc5[C@H]4CC[C@]23C)[C@H](O)[C@H](C)O1 [compound 19]
[1]; ip
  LD50 at 168 h: > 15 mg/kg
[1]; po
  LD50 at 168 h: > 2000 mg/kg
[2]; i.p., 0.1 mg/kg
  Inhibitory effect of tumor, efficiency: 90%
[2]; i.p., 0.5 mg/kg
  Inhibitory effect of tumor, efficiency: 99%
[2]; p.o., 1 mg/kg
  Inhibitory effect of tumor, efficiency: 72%
[2]; p.o., 5 mg/kg
  Inhibitory effect of tumor, efficiency: 85%
